Measurements from patent US12459891B2, “1-[1-(4-benzyloxy-3,5-difluoro-benzoyl)-4-fluoro-pyrrolidine-2-carbonyl]-pyrrolidine-2-carbonitrile” (ACCURE THERAPEUTICS, S.L., priority 2020, dated 2025).

Experiment: Plasma levels after oral administration
Assay type: in vivo

Q: Which “Detected plasma levels of the drug (in words)” value does the source give for `COc1cc(C(=O)N2CC(F)(F)C[C@H]2C(=O)N2CCC[C@H]2C#N)cc(OC)c1OCc1ccccc1` [Comp Ex. 3, (S)-1-((2S)-1-(4-(benzyloxy)-3,5-dimethoxybenzoyl)-4,4-difluoropyrrolidine-2-carbonyl)pyrrolidine-2-carbonitrile] here?
A: The value was “very low”.
